Data taken from ChEMBL document CHEMBL3832548, “DailyMed|setid=ba1cca98-f350-4655-88e3-6ef990779fb9 | KETEK - telithromycin tablet, film coated|Physicians Total Care, Inc”.

Tests used:
Assay type in all cases: ADME, organism-based
[1] = The pharmacokinetics of Telithromycin evaluated after administration of single 800-mg doses to healthy adult subjects.; set-up: dose 800 mg, route oral; details: human, in vivo, dosed compound id 4, dosed compound name TELITHROMYCIN, gender adult male and female, regimen Single dose, tissue Plasma
[2] = (§1) The pharmacokinetics of Telithromycin evaluated after administration of Ketek to subjects.; details: human, in vivo; dosed compound id 4, dosed compound name TELITHROMYCIN, route oral, tissue Feces; read-out: Excretion
Homo sapiens = assay: as §1; details: in vivo, po, dosed compound id 4, dosed compound name TELITHROMYCIN, tissue Urine
[3] = The pharmacokinetics of Telithromycin evaluated after administration of multiple 800-mg doses to healthy adult subjects.; set-up: dose 800 mg, route oral; details: human, in vivo, dosed compound id 4, dosed compound name TELITHROMYCIN, gender adult male and female, regimen Multiple dose, tissue Plasma
[4] = po, 800 mg, read-out: AUC(0-24)

Cmax ([1]; po, 800 mg): 1900 ng/mL | AUC [1, 4]: 8250 ng·h/mL | Tmax ([1]; dose 800 mg, route oral): 1 h | half-life ([1]; dose 800 mg, route oral): 7.16 h | concentration at 24 h ([1]; dose 800 mg, route oral, read-out: C(24h)): 30 ng/mL | dose excreted [2]: 7% | Excretion (Homo sapiens): 13% | Cmax ([3]; po, 800 mg): 2270 ng/mL | AUC [3, 4]: 12500 ng·h/mL | Tmax ([3]; dose 800 mg, route oral): 1 h | half-life ([3]; dose 800 mg, route oral): 9.81 h
Structure (SMILES): CC[C@H]1OC(=O)[C@H](C)C(=O)[C@H](C)[C@@H](O[C@@H]2O[C@H](C)C[C@H](N(C)C)[C@H]2O)[C@](C)(OC)C[C@@H](C)C(=O)[C@H](C)[C@H]2N(CCCCn3cnc(-c4cccnc4)c3)C(=O)O[C@]12C [TELITHROMYCIN]
